According to patent publication US9763445B2, “Safened herbicidal compositions comprising a pyridine carboxylic acid herbicide” (Dow AgroSciences, LLC, priority 2014, dated 2017):
Where two headings read alike, the source gives them in different places.

Experiments:
[1] = tested on: wild mustard (SINAR); experiment: Postemergence greenhouse trial, % visual injury on wild mustard; format: in vivo, Sinapis arvensis; details: SINAR; for % visual injury, Ob: CQC-m 0 g/ha
Method: (§1) Seeds of the desired test plant species were planted in Sun Gro MetroMix® 306 planting mixture, which typically has a pH of 6.0 to 6.8 and an organic matter content of about 30 percent, in plastic pots with a surface area of 103.2 square centimeters (cm^2). When required to ensure good germination and healthy plants, a fungicide treatment and/or other chemical or physical treatment was applied. The plants were grown for 7-36 days (d) in a greenhouse with an approximate 14-hour (h) photoperiod which was maintained at about 23° C. during the day and 22° C. during the night. Nutrients and water were added on a regular basis and supplemental lighting was provided with overhead metal halide 1000-Watt lamps as necessary. The plants were employed for testing when they reached the second or third true leaf stage.
(§2) Weighed amounts of technical material were dissolved in a volume of 97:3 volume per volume (v/v) acetone/dimethyl sulfoxide (DMSO) to stock solutions. […] The concentrated stock solutions were diluted with an aqueous mixture of 1.5% v/v of Agri-dex crop oil concentrate to provide the appropriate application rates. Compound requirements are based upon a 12 milliliter (mL) application volume at a rate of 187 liters per hectare (L/ha). Stocks solutions of the safeners were prepared following the same procedure. Spray solutions of the safeners and experimental compound mixtures were prepared by adding the stock solutions to the appropriate amount of dilution solution to form a 12 mL spray solution in two-way combinations. Formulated compounds were applied to the plant material with an overhead Mandel track sprayer equipped with 8002E nozzles calibrated to deliver 187 L/ha over an application area of 0.503 square meters (m^2) at a spray height of 18 inches (43 centimeters (cm)) above average plant canopy. Control plants were sprayed in the same manner with the solvent blank. All herbicide application (component a) rates are in g ae/ha and all safener (component b) rates are in g ai/ha.
(§3) The treated plants and control plants were placed in a greenhouse as described above and watered by sub-irrigation to prevent wash-off of the test compounds. After 20-22 d, the condition of the test plants as compared with that of the control plants was determined visually and scored on a scale of 0 to 100 percent where 0 corresponds to no injury and 100 corresponds to complete kill. Colby's equation was used to determine the herbicidal effects expected from the mixtures. […]

[2] = tested on: nutsedge (CYPES); experiment: Postemergence greenhouse trial, % visual injury on nutsedge; format: in vivo, Cyperus esculentus; details: alone, 35 g/ha
Procedure, shortened: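 Injury was scored visually (0 = none, 100 = complete kill) 20–22 d after track-sprayer application at 187 L/ha, compared with solvent-sprayed controls. Test plants at the 2–3 true leaf stage; herbicide (g ae/ha) plus cloquintocet-mexyl safener (g ai/ha) in crop-oil-containing spray; expected mixture response by Colby.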

[3] = tested on: cleavers (GALAP); experiment: Postemergence greenhouse trial, % visual injury on cleavers; format: in vivo, Galium aparine
Method: as §1, §2
(§4) The treated plants and control plants were placed in a greenhouse as described above and watered by sub-irrigation to prevent wash-off of the test compounds. After 20-22 d, the condition of the test plants as compared with that of the control plants was determined visually and scored on a scale of 0 to 100 percent where 0 corresponds to no injury and 100 corresponds to complete kill. The condition of the test plants was compared with that of the control plants as determined visually and scored on a scale of 0 to 100 percent, where 0 corresponds to no injury and 100 corresponds to complete kill. Colby's equation was used to determine the herbicidal effects expected from the mixtures.
(§5) The safener cloquintocet-mexyl was combined with compound 1, compound 2, compound 3, compound 7, compound 8, compound 9, compound 10, compound 11, compound 12, compound 13, compound 14, compound 15, compound 16, compound 17, compound 18, compound 19, and compound 20, and applied to spring wheat (TRZAS), winter wheat (TRZAW), and spring barley (HORVS) and the phytotoxicity of the herbicidal compositions was measured. […]

[4] = tested on: prickly lettuce (LACSE); experiment: Postemergence greenhouse trial, % visual injury on prickly lettuce; format: in vivo, Lactuca serriola; details: LACSE; for % visual injury, Ob: CQC-m 0 g/ha
Method: as §1, §2, §3

[5] = tested on: wild buckwheat (POLCO); experiment: Postemergence greenhouse trial, % visual injury on wild buckwheat; format: in vivo, Polygonum convolvulus; details: for % visual injury, observed (Ob): POLCO
Method: as §1, §2, §4
The safener cloquintocet-mexyl was combined with compound 1, compound 2, compound 4, compound 5, and compound 6, and applied to corn/maize (ZEAMX) and spring wheat (TRZAS) and the phytotoxicity of the herbicidal compositions was measured. In addition, the efficacy of the herbicidal composition on velvetleaf (ABUTH, Abutilon theophrasti), pigweed (AMARE, Amaranthus retroflexus), winter rape (BRSNW, Brassica napus), lambsquarters (CHEAL, Chenopodium album), thistle (CIRAR, Cirsium arvense), nutsedge (CYPES, Cyperus esculentus), poinsettia (EPHHL, Euphorbia heterophylla), wild buckwheat (POLCO, Polygonum convolvulus), giant foxtail (SETFA, Setaria faberi), and chickweed (STEME, Stellaria media) was evaluated.
as §5

[6] = compound 2 4.380 + CQC-m 0 g/ha
[7] = compound 8 4.380 + CQC-m 0 g/ha
[8] = compound 4.375 g/ha, CQC-m 0 g/ha
[9] = compound 8.75 g/ha, CQC-m 0 g/ha
[10] = compound 17.5 g/ha, CQC-m 0 g/ha
[11] = Brassica, post-emergence, applied alone, read-out: % visual injury, Ob
[12] = Brassica, post-emergence, 8.75 g/ha, applied alone, read-out: % visual injury, Ob
[13] = Brassica, post-emergence, 17.5 g/ha, applied alone, read-out: % visual injury, Ob
[14] = Brassica, post-emergence, 35 g/ha, applied alone, read-out: % visual injury, Ob
[15] = Brassica, post-emergence, 70 g/ha, applied alone, read-out: % visual injury, Ob

SMILES: Nc1c(F)c(-c2ccc3cc[nH]c3c2F)nc(C(=O)OCc2ccccc2)c1Cl [compound 2]
- % visual injury, observed (Ob) [1, 6]: 94%
- % visual injury, observed (Ob) ([1]; compound 2 8.75 + CQC-m 0 g/ha): 95%
- % visual injury, observed (Ob) ([1]; compound 2 17.5 + CQC-m 0 g/ha): 99%
- % visual injury, observed (Ob) ([1]; compound 2 35 + CQC-m 0 g/ha): 100%
- % visual injury, observed (Ob) ([1]; compound 2 70 + CQC-m 0 g/ha): 100%
- % visual injury, Ob [2]: 30%
- % visual injury, observed (Ob) [3, 6]: 20%
- % visual injury, observed (Ob) ([3]; compound 2 8.75 + CQC-m 0 g/ha): 30%
- % visual injury, observed (Ob) ([3]; compound 2 17.5 + CQC-m 0 g/ha): 93%
- % visual injury, observed (Ob) ([3]; compound 2 35 + CQC-m 0 g/ha): 85%
- % visual injury, observed (Ob) ([3]; compound 2 70 + CQC-m 0 g/ha): 97%
- % visual injury, observed (Ob) [4, 6]: 40%
- % visual injury, observed (Ob) ([4]; compound 2 8.75 + CQC-m 0 g/ha): 99%
- % visual injury, observed (Ob) ([4]; compound 2 17.5 + CQC-m 0 g/ha): 99%
- % visual injury, observed (Ob) ([4]; compound 2 35 + CQC-m 0 g/ha): 100%
- % visual injury, observed (Ob) ([4]; compound 2 70 + CQC-m 0 g/ha): 100%
- % visual injury, Ob ([5]; alone, 35 g/ha): 100%

SMILES: COC(=O)c1nc(-c2ccc3cc[nH]c3c2F)c(F)c(N)c1Cl [compound 8]
- % visual injury, observed (Ob) [1, 7]: 76%
- % visual injury, observed (Ob) ([1]; compound 8 8.75 + CQC-m 0 g/ha): 82%
- % visual injury, observed (Ob) ([1]; compound 8 17.5 + CQC-m 0 g/ha): 96%
- % visual injury, observed (Ob) ([1]; compound 8 35 + CQC-m 0 g/ha): 99%
- % visual injury, observed (Ob) ([1]; compound 8 70 + CQC-m 0 g/ha): 98%
- % visual injury, observed (Ob) [5, 7]: 85%
- % visual injury, observed (Ob) ([5]; compound 8 8.75 + CQC-m 0 g/ha): 97%
- % visual injury, observed (Ob) ([5]; compound 8 17.5 + CQC-m 0 g/ha): 93%
- % visual injury, observed (Ob) ([5]; compound 8 35 + CQC-m 0 g/ha): 100%
- % visual injury, observed (Ob) ([5]; compound 8 70 + CQC-m 0 g/ha): 100%

SMILES: CCCCOC(=O)c1nc(-c2ccc3cc[nH]c3c2F)c(F)c(N)c1Cl [compound 9]
- pest or weed control at 4.38 g/ha ([1]; Brassica, post-emergence, compound 4.380 g/ha, CQC-m 0, read-out: % visual injury, Ob): 93%
- pest or weed control at 8.75 g/ha ([1]; Brassica, post-emergence, compound 8.75 g/ha, CQC-m 0, read-out: % visual injury, Ob): 95%
- pest or weed control at 17.5 g/ha ([1]; Brassica, post-emergence, compound 17.5 g/ha, CQC-m 0, read-out: % visual injury, Ob): 95%
- pest or weed control at 35 g/ha ([1]; Brassica, post-emergence, compound 35 g/ha, CQC-m 0, read-out: % visual injury, Ob): 100%
- pest or weed control at 70 g/ha ([1]; Brassica, post-emergence, compound 70 g/ha, CQC-m 0, read-out: % visual injury, Ob): 100%

SMILES: COc1c(C(=O)O)nc(-c2ccc3cc[nH]c3c2F)c(F)c1N [compound 13]
- % visual injury, Ob ([1]; compound 4.375 g/ha): 95%
- % visual injury, Ob ([1]; compound 8.75 g/ha): 100%
- % visual injury, Ob ([1]; compound 17.5 g/ha): 100%
- % visual injury, Ob ([1]; compound 35 g/ha): 100%
- % visual injury, Ob ([1]; compound 70 g/ha): 100%
- % visual injury, Ob [3, 8]: 40%
- % visual injury, Ob [3, 9]: 70%
- % visual injury, Ob [3, 10]: 80%
- % visual injury, Ob ([3]; compound 35 g/ha, CQC-m 0 g/ha): 100%
- % visual injury, Ob ([3]; compound 70 g/ha, CQC-m 0 g/ha): 100%
- % visual injury, Ob ([4]; compound 4.375 g/ha): 85%
- % visual injury, Ob ([4]; compound 8.75 g/ha): 93%
- % visual injury, Ob ([4]; compound 17.5 g/ha): 95%
- % visual injury, Ob ([4]; compound 35 g/ha): 95%
- % visual injury, Ob ([4]; compound 70 g/ha): 100%

SMILES: Nc1cc(-c2ccc3cc[nH]c3c2F)nc(C(=O)O)c1Cl [compound 15]
- % visual injury, Ob ([1]; compound 4.375 g/ha): 93%
- % visual injury, Ob ([1]; compound 8.75 g/ha): 100%
- % visual injury, Ob ([1]; compound 17.5 g/ha): 100%
- % visual injury, Ob ([1]; compound 35 g/ha): 100%
- % visual injury, Ob ([1]; compound 70 g/ha): 100%
- % visual injury, Ob [3, 8]: 85%
- % visual injury, Ob [3, 9]: 85%
- % visual injury, Ob [3, 10]: 93%
- % visual injury, Ob ([3]; compound 35 g/ha, CQC-m 0 g/ha): 93%
- % visual injury, Ob ([3]; compound 70 g/ha, CQC-m 0 g/ha): 90%

SMILES: Nc1c(F)c(-c2ccc3scnc3c2)nc(C(=O)O)c1Cl [compound 17]
- pest or weed control at 4.375 g/ha [1, 11]: 93%
- pest or weed control at 8.75 g/ha [1, 12]: 93%
- pest or weed control at 17.5 g/ha [1, 13]: 95%
- pest or weed control at 35 g/ha [1, 14]: 95%
- pest or weed control at 70 g/ha [1, 15]: 100%
- % visual injury, Ob ([3]; 4.375 g/ha, applied alone): 50%
- % visual injury, Ob ([3]; 8.75 g/ha, applied alone): 60%
- % visual injury, Ob ([3]; 17.5 g/ha, applied alone): 70%
- % visual injury, Ob ([3]; 35 g/ha, applied alone): 90%
- % visual injury, Ob ([3]; 70 g/ha, applied alone): 90%

SMILES: Nc1c(F)c(-c2ccc3ccoc3c2)nc(C(=O)O)c1Cl [compound 20]
- pest or weed control at 4.375 g/ha [1, 11]: 60%
- pest or weed control at 8.75 g/ha [1, 12]: 60%
- pest or weed control at 17.5 g/ha [1, 13]: 83%
- pest or weed control at 35 g/ha [1, 14]: 80%
- pest or weed control at 70 g/ha [1, 15]: 93%
